Several values for one entry are separate records, joined by “and”; a condition that tells them apart may be missing. Equal entries are not always repeated. Where two headings read alike, the source gives them in different places.
Key:
Type in all cases: biochemical
[1] = target: T1, pseudolysin (PLN, LasB) (Pseudomonas aeruginosa, UniProt P14756); assay: Enzyme inhibition kinetics, fluorogenic substrate ES005; settings: for remaining activity at 100 µM: 100 µM inhibitor
T1 construct: purchased Calbiochem (San Diego, CA, USA)
Procedure: (§1) Determination of reaction velocities. The substrate ES001 was used for APMA activated MMP-9 (MMP-9(A)), Mag-Trypsin activated MMP-9 (MMP-9(MT)) and MMP-14, while the substrate ES005 was used for ALN, PLN and TLN. The reaction velocities/initial rates (v) were determined at 37°C, at an excitation wavelength of 320 nm and an emission wavelength of 405 nm with a slit width of 10 nm using either a Perkin Elmer LS 50 Luminescence spectrometer and the FL WinLab Software Package (Perkin Elmer) or a Clario Star micro plate reader (CLARIOstar® BMG LABTECH).
(§2) The phosphinic compounds were dissolved in 100% DMSO to a final concentration of 10 mM. In all assays, a fixed substrate concentration of 4.0 µM was used in a total volume of 100 µL 0.1 M Hepes pH 7.5, 10 mM CaCl2, 0.005% Brij-35 and 1.0% DMSO. Fixed enzyme concentrations were as follows; 0.05 nM MMP-9(A), 0.05 nM MMP-9(MT), 1.0 nM MMP-14, 1.4 nM ALN, 0.5 nM PLN and 0.21 nM TLN. Time dependent inhibitory experiments, with and without 100 μM of phosphinic compounds, were performed as follows: Compounds were either pre-incubated with proteases for 15 and 30 minutes at room temperature before initiating the enzymatic reaction by adding the substrate, or not pre-incubated, meaning the reaction was initiated by adding the protease to the mixture of substrate and compound. Control tests without the compound present were performed under the same conditions. Reactions were monitored for 30 minutes at 37°C.
(§3) Determination of IC50 and Ki values. […] A fixed substrate concentration and the same enzyme and buffer conditions as described above were used. Enzymes, with or without inhibitors, were either pre-incubated for 30 minutes at room temperature or not pre-incubated, and initial rate assays were performed as described above. Assays were performed using a Clario Star microplate reader. The IC50 values with corresponding s.d. were calculated with GraphPad Prism 5 using equation 1 or 2, depending on the concentration range of the phosphinic compounds.
(§4) Equation 3 describe the relationship between IC50 and Ki values for substrate competitive inhibitors, considering the fixed substrate concentration and the enzyme’s Km value for the substrate: […]

[2] = target: T2, thermolysin (TLN) (Bacillus thermoproteolyticus, UniProt P00800); assay: as above; settings: for vi/v0 avg (time dependent inhibition, Supplementary Figure S8): Thermolysin, inhibitor 100 µM
T2 construct: purchased Calbiochem (San Diego, CA, USA)
Procedure: as §1, §2, §3, §4

[3] = target: T3, aureolysin (ALN) (Staphylococcus aureus, UniProt P81177); assay: as above; settings: for remaining activity at 100 µM: 100 µM inhibitor
T3 construct: purchased BioCentrum Ltd (Kraków, Poland)
Procedure: as §1, §2, §3, §4

[4] = target: T4, human MT1-MMP/MMP-14 (catalytic domain) (Homo sapiens, UniProt P50281); assay: Enzyme inhibition kinetics, fluorogenic substrate ES001; settings: MMP-14; for remaining activity at 100 µM: 100 µM inhibitor
T4 construct: human MT1-MMP/MMP-14 (catalytic domain); purchased Calbiochem (San Diego, CA, USA)
Procedure: as §1, §2, §3, §4

[5] = target: T5, Mag-Trypsin activated MMP-9 (MMP-9(MT)) (Homo sapiens, UniProt P14780); assay: as above; settings: rMMP-9 (Mag-trypsin activated); for remaining activity at 100 µM: 100 µM inhibitor
T5 construct: made in house; host or cells: Sf9 and High Five insect cells
Procedure: (§5) The expression of recombinant full length proMMP-9 (rpMMP-9) in Sf9 and High Five insect cells and the purification were performed as previously described. The amount of proMMP-9 was estimated spectrophotometrically at 280 nm using ε280nm = […] [46] for the full length enzyme. Activation of the recombinant proMMP-9 was performed with APMA (auto-activation) and Mag-Trypsin as previously described, while the amount of active MMP-9 was determined by active site titration using galardin, also described previously.
as §1, §2, §3, §4

[6] = target: T6, APMA activated MMP-9 (MMP-9(A)) (Homo sapiens, UniProt P14780); assay: as above; settings: rMMP-9 (APMA activated); for remaining activity at 100 µM: 100 µM inhibitor
T6 construct: made in house; host or cells: Sf9 and High Five insect cells
Procedure: as §5, §1, §2, §3, §4

[7] = 0.25 h, 15 min pre incubation, read-out: vi/v0 avg
[8] = 0.5 h, 30 min pre incubation, read-out: vi/v0 (single replicate)
[9] = 0.5 h, 30 min pre incubation, read-out: vi/v0 avg
[10] = no preincubation, read-out: vi/v0 avg
[11] = inhibitor 100 μM, preincubation 0 min
[12] = inhibitor 100 μM, preincubation 15 min
[13] = inhibitor 100 μM, preincubation 30 min
[14] = 0.25 h, 15 min pre incubation, read-out: vi/v0 (single replicate)
[15] = no preincubation, read-out: vi/v0 (single replicate)
[16] = inhibitor 100 μM, average over 0, 15, 30 min preincubation

T2 sequence (P00800 233-548): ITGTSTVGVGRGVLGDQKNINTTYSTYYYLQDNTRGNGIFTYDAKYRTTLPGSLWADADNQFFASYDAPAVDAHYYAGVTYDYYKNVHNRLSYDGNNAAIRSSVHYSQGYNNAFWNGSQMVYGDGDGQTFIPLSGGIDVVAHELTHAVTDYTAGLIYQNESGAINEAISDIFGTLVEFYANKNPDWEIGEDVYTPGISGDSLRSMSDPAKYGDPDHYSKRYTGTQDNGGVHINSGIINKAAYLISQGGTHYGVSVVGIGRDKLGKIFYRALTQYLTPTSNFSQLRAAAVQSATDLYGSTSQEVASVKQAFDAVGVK
T5 sequence (P14780 107-707 limits assumed): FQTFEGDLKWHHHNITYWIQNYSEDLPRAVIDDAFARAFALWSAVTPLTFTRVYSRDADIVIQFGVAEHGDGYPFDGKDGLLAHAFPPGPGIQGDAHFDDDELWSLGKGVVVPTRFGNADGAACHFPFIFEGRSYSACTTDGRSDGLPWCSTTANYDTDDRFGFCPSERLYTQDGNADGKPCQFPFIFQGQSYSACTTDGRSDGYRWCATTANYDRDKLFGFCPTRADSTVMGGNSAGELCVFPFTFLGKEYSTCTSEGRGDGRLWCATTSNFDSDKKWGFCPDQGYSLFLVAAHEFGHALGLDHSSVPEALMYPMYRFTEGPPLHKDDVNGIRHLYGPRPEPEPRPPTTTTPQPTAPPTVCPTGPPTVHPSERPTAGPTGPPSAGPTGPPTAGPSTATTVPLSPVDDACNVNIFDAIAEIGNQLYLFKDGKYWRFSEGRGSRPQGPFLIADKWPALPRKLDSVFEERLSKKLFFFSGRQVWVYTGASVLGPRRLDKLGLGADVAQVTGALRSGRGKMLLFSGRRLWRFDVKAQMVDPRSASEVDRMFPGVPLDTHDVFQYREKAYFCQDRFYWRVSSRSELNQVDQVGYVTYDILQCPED
T6 sequence (P14780 107-707 limits assumed): as above
T1 sequence (P14756 198-498): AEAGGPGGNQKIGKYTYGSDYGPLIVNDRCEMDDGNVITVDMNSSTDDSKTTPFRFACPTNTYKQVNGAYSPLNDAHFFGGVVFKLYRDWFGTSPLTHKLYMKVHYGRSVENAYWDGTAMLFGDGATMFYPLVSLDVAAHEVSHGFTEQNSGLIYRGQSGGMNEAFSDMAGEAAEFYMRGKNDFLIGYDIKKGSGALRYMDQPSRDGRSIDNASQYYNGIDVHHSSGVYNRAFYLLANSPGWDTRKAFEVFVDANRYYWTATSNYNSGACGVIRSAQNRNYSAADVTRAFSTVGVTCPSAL
T3 sequence (P81177 209-509): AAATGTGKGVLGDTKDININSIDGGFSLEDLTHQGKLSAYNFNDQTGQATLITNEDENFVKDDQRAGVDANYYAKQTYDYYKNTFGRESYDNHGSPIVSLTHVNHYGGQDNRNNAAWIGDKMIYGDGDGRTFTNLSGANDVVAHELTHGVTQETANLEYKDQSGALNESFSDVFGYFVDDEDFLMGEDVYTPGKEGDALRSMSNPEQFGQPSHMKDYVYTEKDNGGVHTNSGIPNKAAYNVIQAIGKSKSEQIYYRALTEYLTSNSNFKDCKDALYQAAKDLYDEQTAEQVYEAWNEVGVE

CC(NC(=O)OCc1ccccc1)P(=O)(O)CC(Cc1ccccc1)C(=O)O (centres unmarked) [H4]
remaining activity at 100 µM ([1]; 0.25 h, read-out: vi/v0 (single replicate), Pseudolysin, 15 min pre incubation): 75.8%
remaining activity at 100 µM ([1]; 0.25 h, read-out: vi/v0 avg, Pseudolysin, 15 min pre incubation): 75.4%
remaining activity at 100 µM ([1]; 0.5 h, read-out: vi/v0 (single replicate), Pseudolysin, 30 min pre incubation): 64.2%
remaining activity at 100 µM ([1]; 0.5 h, read-out: vi/v0 avg, Pseudolysin, 30 min pre incubation): 64%
vi/v0 Av (bar diagram figure 7) ([1]; Pseudolysin (PLN), inhibitor 100 μM, average over 0, 15, 30 min preincubation): 0.7111
vi/v0 (relative enzyme activity with inhibitor), single determinations ([1]; Pseudolysin (PLN), inhibitor 100 μM, preincubation 0 min): 0.8985 and 0.6806 and 0.6817
vi/v0 (relative enzyme activity with inhibitor), single determinations ([1]; Pseudolysin (PLN), inhibitor 100 μM, preincubation 15 min): 0.7584 and 0.7504
vi/v0 (relative enzyme activity with inhibitor), single determinations ([1]; Pseudolysin (PLN), inhibitor 100 μM, preincubation 30 min): 0.6423 and 0.5711 and 0.7059
remaining activity at 100 µM ([1]; read-out: vi/v0 avg, Pseudolysin, no preincubation): 75.4%
vi/v0 Av (bar diagram figure 7) ([2]; Thermolysin (TLN), inhibitor 100 μM, average over 0, 15, 30 min preincubation): 0.9988
vi/v0 (relative enzyme activity with inhibitor), single determinations ([2]; Thermolysin (TLN), inhibitor 100 μM, preincubation 0 min): 1.0006 and 1.038 and 0.8834 and 0.9657
vi/v0 (relative enzyme activity with inhibitor), single determinations ([2]; Thermolysin (TLN), inhibitor 100 μM, preincubation 15 min): 1.066 and 0.8371 and 1.067 and 1.122
vi/v0 (relative enzyme activity with inhibitor), single determinations ([2]; Thermolysin (TLN), inhibitor 100 μM, preincubation 30 min): 1.04 and 0.9732 and 1.001 and 0.9929
vi/v0 avg (time dependent inhibition, Supplementary Figure S8) ([2]; 15 min pre incubation): 1.023
vi/v0 avg (time dependent inhibition, Supplementary Figure S8) ([2]; 30 min pre incubation): 1.002
vi/v0 avg (time dependent inhibition, Supplementary Figure S8) ([2]; No preincubation): 0.9718
remaining activity at 100 µM ([3]; 0.25 h, read-out: vi/v0 (single replicate), Aureolysin, 15 min pre incubation): 91.1%
remaining activity at 100 µM ([3]; 0.25 h, read-out: vi/v0 avg, Aureolysin, 15 min pre incubation): 90.2%
remaining activity at 100 µM ([3]; 0.5 h, read-out: vi/v0 (single replicate), Aureolysin, 30 min pre incubation): 90.1%
remaining activity at 100 µM ([3]; 0.5 h, read-out: vi/v0 avg, Aureolysin, 30 min pre incubation): 89.4%
vi/v0 Av (bar diagram figure 7) ([3]; Aureolysin (ALN), inhibitor 100 μM, average over 0, 15, 30 min preincubation): 0.8998
vi/v0 (relative enzyme activity with inhibitor), single determinations ([3]; Aureolysin (ALN), inhibitor 100 μM, preincubation 0 min): 0.9356 and 0.8634 and 0.8536 and 0.9579
vi/v0 (relative enzyme activity with inhibitor), single determinations ([3]; Aureolysin (ALN), inhibitor 100 μM, preincubation 15 min): 0.9112 and 0.976 and 0.8542 and 0.865
vi/v0 (relative enzyme activity with inhibitor), single determinations ([3]; Aureolysin (ALN), inhibitor 100 μM, preincubation 30 min): 0.898 and 0.8819
remaining activity at 100 µM ([3]; read-out: vi/v0 (single replicate), Aureolysin, no preincubation): 93.6%
remaining activity at 100 µM ([3]; read-out: vi/v0 avg, Aureolysin, no preincubation): 90.3%
remaining activity at 100 µM [4, 7]: 101%
remaining activity at 100 µM [4, 8]: 101%
remaining activity at 100 µM [4, 9]: 102%
remaining activity at 100 µM [4, 10]: 106%
vi/v0 Av (bar diagram figure 7) ([4]; inhibitor 100 μM, average over preincubation times): 1.032
vi/v0 (relative enzyme activity with inhibitor), single determinations [4, 11]: 1.105 and 1.3078 and 1.015 and 0.8074
vi/v0 (relative enzyme activity with inhibitor), single determinations [4, 12]: 0.8428 and 1.155 and 1.039
vi/v0 (relative enzyme activity with inhibitor), single determinations [4, 13]: 1.0115 and 1.061 and 0.9741
remaining activity at 100 µM [5, 14]: 93.4%
remaining activity at 100 µM [5, 7]: 93.8%
remaining activity at 100 µM [5, 8]: 97.8%
remaining activity at 100 µM [5, 9]: 96.3%
remaining activity at 100 µM [5, 15]: 84.9%
remaining activity at 100 µM [5, 10]: 88.4%
vi/v0 Av (bar diagram figure 7) [5, 16]: 0.9238
vi/v0 (relative enzyme activity with inhibitor), single determinations [5, 11]: 0.8486 and 0.9422 and 0.8609
vi/v0 (relative enzyme activity with inhibitor), single determinations [5, 12]: 0.9336 and 1.006 and 0.8738
vi/v0 (relative enzyme activity with inhibitor), single determinations [5, 13]: 0.9779 and 0.9473
remaining activity at 100 µM [6, 14]: 99.2%
remaining activity at 100 µM [6, 7]: 95%
remaining activity at 100 µM [6, 9]: 100%
remaining activity at 100 µM [6, 15]: 94.1%
remaining activity at 100 µM [6, 10]: 99.6%
vi/v0 Av (bar diagram figure 7) [6, 16]: 0.9837
vi/v0 (relative enzyme activity with inhibitor), single determinations [6, 11]: 0.9415 and 1.015 and 1.031
vi/v0 (relative enzyme activity with inhibitor), single determinations [6, 12]: 0.9922 and 0.9231 and 0.9335
vi/v0 (relative enzyme activity with inhibitor), single determinations [6, 13]: 1.197 and 1.012 and 1.109 and 0.6833

— PMC12316308, “Interactions of substrates and phosphinyl containing inhibitors with bacterial and human zinc proteases” (PLOS One, 2025)
